The values that follow come from PMC8803746, “Two experts and a newbie: [^18F]PARPi vs [^18F]FTT vs [^18F]FPyPARP—a comparison of PARP imaging agents” (European Journal of Nuclear Medicine and Molecular Imaging, 2021).

A short description of series [1]: Blood half-life, two-phase decay fit. Type of series: in vivo, NOD.CB17-Prkdc^scid/J mice. Particulars: calculated with two-phase decay fit. As for the experimental part:
All animal experiments were performed according to the German animal welfare act and approved by the local authorities (Regierungspräsidium Tübingen, R3/18). Animals were housed in individually ventilated cages (IVCs, 5 mice per cage) with bedding and enrichment, and food and water was provided ad libitum. Animals were kept under isoflurane anesthetic (1.5% in pure oxygen, 1.5 l/min) during the experiments. In 1:1 ice-cold Matrigel (Thermo Scientific)/PBS, 1 × 10^7 cells were injected subcutaneously in the right shoulder area of 7-week-old female NOD.CB17-Prkdc^scid/J mice (n = 10 per tracer). After the xenografts reached a suitable size (302 ± 152 mm^3), mice were injected with 12.45 ± 0.87 MBq, 12.68 ± 0.39 MBq, and 12.94 ± 0.45 MBq, respectively, of [^18F]PARPi, [^18F]FPyPARP, and [^18F]FTT and subjected to 1-h dynamic (n = 7 per tracer) or 10-min static (n = 3 per tracer, 1-h resting uptake) PET imaging (Inveon D-PET, Siemens, Knoxville, TN, USA) with subsequent magnetic resonance (MR) anatomical scans using a 7-T Biospec 70/30 USR (Clinscan, Bruker Biospin MRI GmbH) and a T2-weighted spin echo sequence. Five mice of each dynamically acquired group underwent a second, 10-min static PET scan 2-h post-injection (p.i.). Mice were sacrificed by cervical dislocation, the collected organs were weighed, and the tissue uptake was determined by gamma-counting (WIZARD2). Liver and kidney tissue was frozen in Tissue-Tek (Labtech, East Sussex, Britain) and 20-µm slices were prepared for autoradiography. A storage phosphor screen (Molecular Dynamics, Caesarea, Israel) was exposed to the sections for 18 h and scanned at a resolution of 100 µm/px with a STORM phosphor imager (Molecular Dynamics). […]
Statistical analyses are represented as mean values ± standard deviation. […] Blood half-life was calculated using a two-phase decay fit in GraphPad Prism 8. p values < 0.05 were considered statistically significant according to the software (*p < 0.05, **p < 0.01, ***p < 0.001, ****p < 0.0001).

Series [2] is described as follows: Serum stability analysis in human serum. Format: in vitro ADME. Particulars: 37 °C, over 240 min, HPLC. As for the experimental part: (§1) Serum stability was assessed by mixing [^18F]FPyPARP solution 1:1 with C57BL/6 J mouse or human (blood type AB + , Sigma-Aldrich, Steinheim, Germany) serum. After 0-, 30-, 60-, 120-, and 240-min incubation at 37 °C, samples were drawn and the proteins were precipitated by adding ice-cold MeCN to a final concentration of 50%. The supernatant after centrifugation (12,100 × g, 90 s) was analyzed by HPLC as described for radiotracer quality control.

The nature of series [3]: Experimental logP and logD determination (1-octanol/water or PBS, gamma counter). Format: physicochemical. Particulars: experimentally determined; for logD: 1-octanol/PBS; for logP: 1-octanol/water. As for the experimental part:
One microliter radiotracer solution (0.4 MBq) was added to a mixture of 500 µl water or PBS and 500 µl 1-octanol. After thorough shaking, the suspension was shortly centrifuged for phase separation, samples were drawn from each phase, and radioactivity concentration was measured in a gamma counter (WIZARD2, PerkinElmer, Waltham, MA, USA).

Another series relates to HCC1937 xenografts. Description: PET/MR imaging and ex vivo biodistribution in xenograft-bearing mice. Details: species or system NOD.CB17-Prkdc^scid/J mice. Particulars: for Xenograft uptake (TACs from dynamic PET): 1-h dynamic PET; for tumor-to-muscle ratio (TMR) / tumor-to-blood ratio (TBR): ex vivo biodistribution; for tumor-to-muscle ratio (TMR) / tumor-to-blood ratio (TBR) / liver-to-kidney ratio (LKR): mean value; for Renal clearance / bladder uptake in PET images: i.v., dynamic PET, minutes 50-60. As for the experimental part: All animal experiments were performed according to the German animal welfare act and approved by the local authorities (Regierungspräsidium Tübingen, R3/18). Animals were housed in individually ventilated cages (IVCs, 5 mice per cage) with bedding and enrichment, and food and water was provided ad libitum. Animals were kept under isoflurane anesthetic (1.5% in pure oxygen, 1.5 l/min) during the experiments. In 1:1 ice-cold Matrigel (Thermo Scientific)/PBS, 1 × 10^7 cells were injected subcutaneously in the right shoulder area of 7-week-old female NOD.CB17-Prkdc^scid/J mice (n = 10 per tracer). After the xenografts reached a suitable size (302 ± 152 mm^3), mice were injected with 12.45 ± 0.87 MBq, 12.68 ± 0.39 MBq, and 12.94 ± 0.45 MBq, respectively, of [^18F]PARPi, [^18F]FPyPARP, and [^18F]FTT and subjected to 1-h dynamic (n = 7 per tracer) or 10-min static (n = 3 per tracer, 1-h resting uptake) PET imaging (Inveon D-PET, Siemens, Knoxville, TN, USA) with subsequent magnetic resonance (MR) anatomical scans using a 7-T Biospec 70/30 USR (Clinscan, Bruker Biospin MRI GmbH) and a T2-weighted spin echo sequence. Five mice of each dynamically acquired group underwent a second, 10-min static PET scan 2-h post-injection (p.i.). Mice were sacrificed by cervical dislocation, the collected organs were weighed, and the tissue uptake was determined by gamma-counting (WIZARD2). Liver and kidney tissue was frozen in Tissue-Tek (Labtech, East Sussex, Britain) and 20-µm slices were prepared for autoradiography. A storage phosphor screen (Molecular Dynamics, Caesarea, Israel) was exposed to the sections for 18 h and scanned at a resolution of 100 µm/px with a STORM phosphor imager (Molecular Dynamics). PET image reconstruction and correlation with MR images was performed with Inveon Acquisition Workplace and Inveon Research Workplace, respectively, using a user-defined dynamic framing and an ordered subset expectation maximization (OSEM3D) algorithm. Regions of interest (ROIs) were drawn according to the acquired MR images and co-registered with the PET data to obtain time-activity curves (TACs).
Statistical analyses are represented as mean values ± standard deviation. Analyses were performed using GraphPad Prism 9 and non-parametric t tests (comparison of two groups) and one-way ANOVA (comparison of more than two groups). Blood half-life was calculated using a two-phase decay fit in GraphPad Prism 8. p values < 0.05 were considered statistically significant according to the software (*p < 0.05, **p < 0.01, ***p < 0.001, ****p < 0.0001).

A short description of series [4]: Serum stability analysis in mouse serum. Format: in vitro ADME. Particulars: C57BL/6 J mouse serum, 37 °C, over 240 min, HPLC. As for the experimental part: as §1
In the next series the test system is HCC1937 cells. Description: In vitro radiotracer uptake, acid wash. Format: cell-based, human. Particulars: glycine-HCl in PBS 50 mM pH 2.8 vs medium. The method, then:
For the acid wash, cells were distributed in 96-well filter plates as described before and incubated with the radiotracer solution for 30 min at 37 °C. After an initial wash with 100 µl medium, cells were either washed twice (1: 100 µl, 2: 200 µl) with medium or with glycine–HCl in PBS (50 mM, pH 2.8) followed by a final wash with 200 µl medium and measured in a gamma counter.

On the set-up of series [5]: method as in PMID 32245901. Particulars: cited from earlier work.
On the set-up of series [6]: method as in PMID 30389822. Particulars: cited from earlier work.
Details of series [7]: method as in PMID 30389822. Particulars: cited from earlier work. The source holds these as a separate data set.
On the set-up of series [8]: method as in Lynparza monograph, AstraZeneca. Particulars: reported value; ref Lynparza monograph, AstraZeneca; cited from earlier work.
The subject of series [9] is ABCB1 (encoding MDR1 P-glycoprotein). More on the design: method as in PMID 24700236. Particulars: cited from earlier work.

By logD is commonly meant the decadic logarithm of the distribution of all forms, ionised or not, between an organic phase and buffer at a given pH. The logP is the decadic logarithm of the partition coefficient of the neutral form, usually between octanol and water. High values mean a more lipophilic compound, low ones a more hydrophilic compound.

Values joined by “and” are separate entries in the source; they are usually repeats but may differ in a detail not shown here. Equal values may be shown once. Read-outs that look alike come from different tables or passages of the source.

In the case of `O=C(c1ccc(F)nc1)N1CCN(C(=O)c2cc(Cc3n[nH]c(=O)c4ccccc34)ccc2F)CC1` [[^18F]FPyPARP, 4-(4-Fluoro-3-(4-(6-fluoronicotinoyl)piperazine-1-carbonyl)benzyl)phthalazine-1(2H)-one], in series [1], the Blood half-life is listed as 2.6 ± 1.4 min. The Serum stability result in series [2] is “no significant radiometabolites and good radiotracer stability over 240 min”. Also, in series [3], the logD was found to be 1.16 and the logP was 1.16. Also, in the series with HCC1937 xenografts, the “Xenograft uptake (TACs from dynamic PET)” value is “within the same range” and the “Renal clearance / bladder uptake in PET images” value (from here on “Renal clearance / bladder uptake”) is “all animals exhibiting strong radioactive signal in the bladder”. For the same compound, the “tumor-to-muscle ratio (TMR)” value in the series on HCC1937 xenografts (1.5 h p.i.) was found to be 1.99. In the series with HCC1937 xenografts (1.5 h vs 2.5 h p.i.), the “Change of liver-to-kidney ratio between the 1.5 and 2.5 h time points” value was “decreased”. Moreover, in the series on HCC1937 xenografts (2.5 h p.i.), the “tumor-to-blood ratio (TBR)” value was 3.99 ± 0.99 and 3.99; the “tumor-to-muscle ratio (TMR)” value was determined as 2.46; the “liver-to-kidney ratio (LKR)” value came to 0.60. Besides, the “Liver uptake (TACs)” value in the series with HCC1937 xenografts (early time points, in direct comparison to [^18F]PARPi) is “lower uptake values”. In addition, the Serum stability result in series [4] was “no significant radiometabolites and good radiotracer stability over 240 min”. The “Radiotracer uptake after acidic wash compared to medium wash” value in the series with HCC1937 cells is given as “No difference”.
On to `O=C1NCCn2c(-c3ccc(OCC[18F])cc3)nc3cccc1c32` [[^18F]FTT], for which the Blood half-life in series [1] was 2.1 ± 0.5 min. In series [3], this compound gave a logD of 1.94 and a logP of 1.1. Besides, in the series on HCC1937 xenografts, the “Xenograft uptake (TACs from dynamic PET)” value was “higher overall xenograft uptake” and the “Renal clearance / bladder uptake” value is “no noticeable renal clearance”. For the same compound, the “tumor-to-liver ratio (TLR)” value with HCC1937 xenografts (1.5 h and 2.5 h p.i.) is recorded as “significantly higher at both time points”. In the series on HCC1937 xenografts (2.5 h p.i.), the “tumor-to-blood ratio (TBR)” value was 2.46 ± 0.35 and 2.46; the “tumor-to-muscle ratio (TMR)” value is given as 3.42. Besides, the “Radiotracer uptake after acidic wash compared to medium wash” value in the series with HCC1937 cells is “No difference”.
For `O=C(c1ccc([18F])cc1)N1CCN(C(=O)c2cc(Cc3n[nH]c(=O)c4ccccc34)ccc2F)CC1` [[^18F]PARPi], the Blood half-life in [1] is reported as 3 ± 0.7 min. Also, in series [3], the logD worked out at 2.09 and the log partition coefficient (logP) worked out at 2.09. Also, in the series on HCC1937 xenografts, the “Xenograft uptake (TACs from dynamic PET)” value was “within the same range” and the “Renal clearance / bladder uptake” value was “some of the animals showed renal excretion”. In addition, the “tumor-to-muscle ratio (TMR)” value in the series on HCC1937 xenografts (1.5 h p.i.) stood at 5.3. Further, in the series on HCC1937 xenografts (2.5 h p.i.), the “tumor-to-blood ratio (TBR)” value amounted to 3.41 ± 0.83 and the “liver-to-kidney ratio (LKR)” value is listed as 1.37. The “Radiotracer uptake after acidic wash compared to medium wash” value with HCC1937 cells is “significantly higher uptake”. For the same compound, in series [5] (first-in-human clinical studies), the “Time of first appearance of a radiometabolite” value is 25 min. For the same compound, in series [5] (in humans), the Renal clearance was 30%.
`O=C(c1cc(Cc2n[nH]c(=O)c3ccccc23)ccc1[18F])N1CCN(C(=O)C2CC2)CC1` [[^18F]olaparib]: the “calculated logP” value in [6] is on record as 2.02. In series [7], the Clearance route result was “only shows hepatobiliary clearance”.
For the compound `O=C(c1cc(Cc2n[nH]c(=O)c3ccccc23)ccc1F)N1CCN(C(=O)C2CC2)CC1` [olaparib], the logD in [8] is reported as 1.49. Further, the Efflux transporter substrate result in series [9] is reported as “efflux transporter of olaparib”.
